# Assay results reported in article PMC4356144, “The kinase LYK5 is a major chitin receptor in Arabidopsis and forms a chitin-induced complex with related kinase CERK1” (eLife, 2014).
# Assays:
# [1] = target: T1, AtLYK5 (full-length, HA-tagged) (Arabidopsis thaliana, UniProt O22808); experiment: competition of chitin magnetic bead pull-down, anti-HA immunoblot; type: biochemical; conditions: protoplasts treated with 10 µM oligomer for 15 min before harvest
# T1 construct: gene LYK5; full-length cDNA, HA tag, 35S promoter, Arabidopsis Col-0 protoplasts
# T1 sequence (O22808 27-664): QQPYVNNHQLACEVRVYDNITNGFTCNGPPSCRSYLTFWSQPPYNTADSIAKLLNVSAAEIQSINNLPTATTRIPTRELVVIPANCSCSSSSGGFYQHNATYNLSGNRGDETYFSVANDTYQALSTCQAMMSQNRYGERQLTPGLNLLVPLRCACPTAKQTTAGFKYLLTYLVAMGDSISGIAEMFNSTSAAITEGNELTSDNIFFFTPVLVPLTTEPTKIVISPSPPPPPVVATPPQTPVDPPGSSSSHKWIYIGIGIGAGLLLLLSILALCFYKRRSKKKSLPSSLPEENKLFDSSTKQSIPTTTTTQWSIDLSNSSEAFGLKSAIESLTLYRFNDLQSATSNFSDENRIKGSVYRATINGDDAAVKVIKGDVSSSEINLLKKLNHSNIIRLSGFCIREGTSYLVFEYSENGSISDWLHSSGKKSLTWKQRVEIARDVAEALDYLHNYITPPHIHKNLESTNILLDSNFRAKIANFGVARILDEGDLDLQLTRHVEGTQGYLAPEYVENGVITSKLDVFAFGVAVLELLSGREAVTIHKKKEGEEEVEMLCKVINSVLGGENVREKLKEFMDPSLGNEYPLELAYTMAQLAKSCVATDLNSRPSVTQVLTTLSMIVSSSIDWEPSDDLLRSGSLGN
# AtLYK5 (ectodomain) = target: T2, AtLYK5 (ectodomain) (Arabidopsis thaliana, UniProt O22808); experiment: isothermal titration calorimetry; type: binding; conditions: 10 mM HEPES pH 7.5, 100 mM NaCl, 25°C
# T2 construct: gene LYK5; ectodomain 27-278 aa, E. coli BL21, pMCSG73; thrombin site before His tag, thrombin-cleaved, then Strep-Tactin purified
# T2 sequence (O22808 27-278): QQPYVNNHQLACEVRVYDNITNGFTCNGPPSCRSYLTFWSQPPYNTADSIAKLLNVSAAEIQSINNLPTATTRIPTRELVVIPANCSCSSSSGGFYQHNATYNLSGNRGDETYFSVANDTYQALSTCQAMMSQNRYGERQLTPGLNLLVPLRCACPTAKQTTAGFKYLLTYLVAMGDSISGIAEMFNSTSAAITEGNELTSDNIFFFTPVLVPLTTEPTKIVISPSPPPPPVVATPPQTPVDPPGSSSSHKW
# AtCERK1 (ectodomain) = target: T3, AtCERK1 (ectodomain) (Arabidopsis thaliana, UniProt A8R7E6); experiment: isothermal titration calorimetry; type: binding; conditions: 10 mM HEPES pH 7.5, 100 mM NaCl, 25°C
# T3 construct: gene CERK1; ectodomain 24-231 aa, pMAL-c2G (MBP fusion), amylose resin purified, E. coli
# T3 sequence (A8R7E6 24-231): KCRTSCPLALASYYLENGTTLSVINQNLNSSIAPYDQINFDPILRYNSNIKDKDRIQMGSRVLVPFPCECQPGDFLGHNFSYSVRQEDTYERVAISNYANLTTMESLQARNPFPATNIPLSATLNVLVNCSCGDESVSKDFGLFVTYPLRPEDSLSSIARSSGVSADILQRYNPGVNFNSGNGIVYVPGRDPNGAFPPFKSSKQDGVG
# [2] = target: T4, AtLYK4 (full-length, HA-tagged) (Arabidopsis thaliana, UniProt O64825); experiment: competition of chitin magnetic bead pull-down, anti-HA immunoblot; type: biochemical; conditions: protoplasts treated with 10 µM oligomer for 15 min before harvest
# T4 construct: gene LYK4; full-length cDNA, HA tag, 35S promoter, Arabidopsis Col-0 protoplasts
# T4 sequence (O64825 23-612): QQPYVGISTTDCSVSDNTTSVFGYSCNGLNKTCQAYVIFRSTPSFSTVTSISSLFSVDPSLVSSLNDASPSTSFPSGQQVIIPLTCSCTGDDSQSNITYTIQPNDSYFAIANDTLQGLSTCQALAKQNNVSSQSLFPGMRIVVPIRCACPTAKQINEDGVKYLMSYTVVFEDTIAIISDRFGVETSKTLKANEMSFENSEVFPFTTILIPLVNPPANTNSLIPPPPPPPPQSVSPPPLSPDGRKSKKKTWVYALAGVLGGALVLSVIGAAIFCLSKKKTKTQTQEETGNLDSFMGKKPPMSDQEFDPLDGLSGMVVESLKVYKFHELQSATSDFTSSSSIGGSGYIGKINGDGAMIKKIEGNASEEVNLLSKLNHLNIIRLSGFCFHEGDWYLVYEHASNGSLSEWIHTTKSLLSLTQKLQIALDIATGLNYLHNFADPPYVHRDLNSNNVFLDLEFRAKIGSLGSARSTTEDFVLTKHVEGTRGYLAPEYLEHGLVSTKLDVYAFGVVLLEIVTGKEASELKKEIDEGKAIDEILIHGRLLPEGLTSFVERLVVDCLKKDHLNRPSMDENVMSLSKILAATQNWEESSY
# [3] = target: T5, wheat germ agglutinin (WGA); experiment: isothermal titration calorimetry; type: binding; conditions: 10 mM HEPES pH 7.5, 100 mM NaCl, 25°C
# T5 construct: gene WGA1
# AtCERK1 kinase domain = target: T6, AtCERK1 kinase domain (Arabidopsis thaliana, UniProt A8R7E6); experiment: in vitro autophosphorylation, […] autoradiography; type: biochemical; conditions: 50 mM Tris pH 7.6, 50 mM KCl, 10 mM MnCl2, 10 mM MgCl2, room temperature; labelled compound
# T6 construct: gene CERK1; intracellular kinase domain 255-617 aa, N-terminal GST, pGEX 5X-1, E. coli BL21 (DE3)
# T6 sequence (A8R7E6 255-617): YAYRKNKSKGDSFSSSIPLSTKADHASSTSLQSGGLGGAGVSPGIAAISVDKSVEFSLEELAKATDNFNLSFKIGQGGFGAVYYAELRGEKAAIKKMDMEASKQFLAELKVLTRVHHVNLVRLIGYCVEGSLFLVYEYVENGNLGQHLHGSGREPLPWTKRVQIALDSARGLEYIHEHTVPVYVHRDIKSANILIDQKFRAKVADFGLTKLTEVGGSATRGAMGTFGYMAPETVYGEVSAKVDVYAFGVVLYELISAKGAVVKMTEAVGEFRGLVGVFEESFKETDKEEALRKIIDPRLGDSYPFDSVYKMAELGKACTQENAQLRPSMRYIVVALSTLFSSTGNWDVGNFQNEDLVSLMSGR
# [4] = target: the molecule itself; experiment: SDS-PAGE without reducing agent and immunoblot; crude protein of transgenic Arabidopsis expressing AtLYK5-HA in Atlyk5-2, before or 15 min after 1 µM chitooctaose, boiled 5 min without DTT; anti-HA blot
molecule,measurement,setting,value
"CC(=O)N[C@H]1[C@H](O[C@H]2[C@H](O)[C@@H](NC(C)=O)[C@H](O[C@H]3[C@H](O)[C@@H](NC(C)=O)[C@H](O[C@H]4[C@H](O)[C@@H](NC(C)=O)C(O)O[C@@H]4CO)O[C@@H]3CO)O[C@@H]2CO)O[C@H](CO)[C@@H](O[C@@H]2O[C@H](CO)[C@@H](O[C@@H]3O[C@H](CO)[C@@H](O[C@@H]4O[C@H](CO)[C@@H](O)[C@H](O)[C@H]4NC(C)=O)[C@H](O)[C@H]3NC(C)=O)[C@H](O)[C@H]2NC(C)=O)[C@@H]1O (some centres unmarked) [7mer, chitoheptaose]","competition of chitin magnetic bead pull-down, anti-HA immunoblot",[1],The binding with AtLYK5 was strongly inhibited by chitoheptaose and chitooctaose
"CC(=O)N[C@H]1[C@H](O[C@H]2[C@H](O)[C@@H](NC(C)=O)[C@H](O[C@H]3[C@H](O)[C@@H](NC(C)=O)[C@H](O[C@H]4[C@H](O)[C@@H](NC(C)=O)C(O)O[C@@H]4CO)O[C@@H]3CO)O[C@@H]2CO)O[C@H](CO)[C@@H](O[C@@H]2O[C@H](CO)[C@@H](O[C@@H]3O[C@H](CO)[C@@H](O[C@@H]4O[C@H](CO)[C@@H](O[C@@H]5O[C@H](CO)[C@@H](O)[C@H](O)[C@H]5NC(C)=O)[C@H](O)[C@H]4NC(C)=O)[C@H](O)[C@H]3NC(C)=O)[C@H](O)[C@H]2NC(C)=O)[C@@H]1O (some centres unmarked) [8mer, chitooctaose]",Kd,AtLYK5 (ectodomain),1720 nM
same,Kd,AtCERK1 (ectodomain),455000 nM
same,"competition of chitin magnetic bead pull-down, anti-HA immunoblot",[1],The binding with AtLYK5 was strongly inhibited by chitoheptaose and chitooctaose
same,"competition of chitin magnetic bead pull-down, anti-HA immunoblot",[2],the binding with AtCERK1 or AtLYK4 was only slightly reduced by the same competitors
same,Kd,[3],1600 nM
Nc1ncnc2c1ncn2[C@@H]1O[C@H](COP(=O)(O)OP(=O)(O)OP(=O)(O)O)[C@@H](O)[C@H]1O [ATP],"in vitro autophosphorylation, 32P autoradiography",AtCERK1 kinase domain,the AtCERK1 kinase domain showed strong kinase activity as previously reported
"AtLYK5-HA (full length AtLYK5 under its native promoter in Atlyk5-2 mutant plants) (receptor, Arabidopsis thaliana, UniProt O22808 27-664, looked up, AtLYK5 (At2g33580), Arabidopsis thaliana; genomic fragment with the 1.8 kb promoter and the coding region up to the stop codon, in pGWB13; also called wild-type AtLYK5; source: transgenic Arabidopsis (Atlyk5-2 background, native promoter), in crude extract or lysate) QQPYVNNHQLACEVRVYDNITNGFTCNGPPSCRSYLTFWSQPPYNTADSIAKLLNVSAAEIQSINNLPTATTRIPTRELVVIPANCSCSSSSGGFYQHNATYNLSGNRGDETYFSVANDTYQALSTCQAMMSQNRYGERQLTPGLNLLVPLRCACPTAKQTTAGFKYLLTYLVAMGDSISGIAEMFNSTSAAITEGNELTSDNIFFFTPVLVPLTTEPTKIVISPSPPPPPVVATPPQTPVDPPGSSSSHKWIYIGIGIGAGLLLLLSILALCFYKRRSKKKSLPSSLPEENKLFDSSTKQSIPTTTTTQWSIDLSNSSEAFGLKSAIESLTLYRFNDLQSATSNFSDENRIKGSVYRATINGDDAAVKVIKGDVSSSEINLLKKLNHSNIIRLSGFCIREGTSYLVFEYSENGSISDWLHSSGKKSLTWKQRVEIARDVAEALDYLHNYITPPHIHKNLESTNILLDSNFRAKIANFGVARILDEGDLDLQLTRHVEGTQGYLAPEYVENGVITSKLDVFAFGVAVLELLSGREAVTIHKKKEGEEEVEMLCKVINSVLGGENVREKLKEFMDPSLGNEYPLELAYTMAQLAKSCVATDLNSRPSVTQVLTTLSMIVSSSIDWEPSDDLLRSGSLGN",stoichiometry N,[4],2
